Experimental findings from article PMC11455950, “Effects of SZV-2649, a new multiple ion channel inhibitor mexiletine analogue” (Scientific Reports, 2024) are described below.

The structures appear in SMILES notation.

Assay [1] addresses T1, GIRK1 (Kir3.1/3.4) potassium channel (Homo sapiens, UniProt P48544+P48549).
T1 construct: host or cells: HEK293
T1 sequence (P48549 1-501): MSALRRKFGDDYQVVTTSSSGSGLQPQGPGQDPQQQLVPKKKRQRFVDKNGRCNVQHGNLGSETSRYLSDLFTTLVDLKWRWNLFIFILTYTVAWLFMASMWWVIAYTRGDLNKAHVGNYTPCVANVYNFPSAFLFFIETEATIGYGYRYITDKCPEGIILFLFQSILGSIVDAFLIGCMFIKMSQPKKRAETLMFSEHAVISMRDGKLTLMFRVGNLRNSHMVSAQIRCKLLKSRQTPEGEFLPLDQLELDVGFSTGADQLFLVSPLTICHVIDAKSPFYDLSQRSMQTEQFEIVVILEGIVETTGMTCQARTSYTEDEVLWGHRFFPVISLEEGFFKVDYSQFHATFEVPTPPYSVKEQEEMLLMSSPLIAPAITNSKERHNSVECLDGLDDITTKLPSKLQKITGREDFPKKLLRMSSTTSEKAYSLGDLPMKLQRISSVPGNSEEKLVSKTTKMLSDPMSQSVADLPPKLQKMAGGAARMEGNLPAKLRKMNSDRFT
T1 sequence (P48544 1-419): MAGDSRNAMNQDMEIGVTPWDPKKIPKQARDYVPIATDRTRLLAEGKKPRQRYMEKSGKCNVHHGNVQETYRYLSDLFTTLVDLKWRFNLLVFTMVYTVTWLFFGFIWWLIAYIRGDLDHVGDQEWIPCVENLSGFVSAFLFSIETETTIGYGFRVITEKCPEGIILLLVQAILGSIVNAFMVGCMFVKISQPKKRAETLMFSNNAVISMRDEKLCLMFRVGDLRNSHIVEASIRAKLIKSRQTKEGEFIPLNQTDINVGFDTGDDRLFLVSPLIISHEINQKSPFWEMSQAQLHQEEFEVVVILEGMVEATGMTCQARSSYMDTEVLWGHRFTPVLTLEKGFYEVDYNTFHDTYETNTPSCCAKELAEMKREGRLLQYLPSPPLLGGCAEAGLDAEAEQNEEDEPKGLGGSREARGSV
The assay is described as follows: Automated planar patch-clamp, GIRK current in HEK cells. The assay is classed as cell-based. Conditions: HEK cells (abstract). An excerpt: Inhibition of the hERG channel, the pore forming α-subunit of the native IKr cardiac potassium channel, is expected to prolong repolarization both in the atria and in the ventricles. The GIRK channel is the pore forming α-subunit of the acetylcholine-activated potassium channel and plays an important role in atrial electrophysiology. Its inhibition can be expected to decrease the acetylcholine-activated potassium current (IKACh), a current that plays an important role in the pathogenesis of AF. Therefore, the effects of SZV-2649 on the hERG and GIRK ion channels were studied by the planar patch-clamp technique in mammalian HEK cell lines stably expressing these channels.
The currents conducted by the hERG and GIRK channels were measured by using planar patch-clamp technology[,[47],[68] in the whole-cell configuration with a four-channel medium-throughput fully automated patch-clamp platform (Patchliner Quattro, Nanion Technologies GmbH, Munich, Germany) with integrated temperature control. […]
For GIRK current measurements (see Fig. 2.), the internal solution was (in mM): K-gluconate 40, NaCl 20, KF 60, EGTA 20 and HEPES 10 (pH 7.2, KOH) supplemented with 0.9 mM GTP before experiments to induce channel activation. […] The invard currents were calculated from the − 140 mV segment. […]

Assay [2] deals with dog right ventricular muscle preparations. The assay is described as follows: Conventional microelectrode action potential recording, dog ventricular muscle. The note with it: 10 µM.

Compound `CC(N)COc1c(I)cc(C#N)cc1I.Cl` (stereo not drawn) [SZV-2649, 4-(2-aminopropoxy)-3,5-diiodobenzonitrile hydrochloride] had an IC50 in assay [1] of 529 nM. Moreover, the “Onset kinetics of Vmax block” value in assay [2] (after 1 min rest, stimulation cycle length 400 ms) is listed as 3.1. In addition, the “Effect on Vmax as a function of stimulation cycle length” value in assay [2] (dog ventricular muscle, steady-state stimulation) is recorded as “decreased Vmax at cycle lengths shorter than 2000 ms”.
